Experimental data: patent publication US20090123940A1, “MOLECULES INVOLVED IN SYNAPTOGENESIS AND USES THEREFOR” (THE JOHNS HOPKINS UNIVERSITY, priority 2007, published 2009)

System: Purkinje cells cultured from embryonic mouse cerebellum
Assay: LTD of glutamate-evoked inward current in cultured Purkinje cells (glutamate test pulses paired with depolarizing steps)
Type: cell-based
Conditions: t=40 min; TAPI-2 10 μM, GM6001 1 μM, GM6001 control compound 1 μM; n=7
Protocol: Recording and Ca^2+ imaging in cerebellar cultures. Cultures of embryonic mouse cerebellum were prepared as previously described and recordings were performed according to our previously published method (Leitges et al., Neuron 44:585-94, 2004). […]. Test pulses were delivered using negative current pulses (300-700 nA, 30-80 msec duration). LTD-inducing pairing stimuli consisted of six, 3-s-long depolarizations to 0 mV, each delivered together with a test pulse of glutamate.
Membrane currents were recorded with an Axopatch 200A amplifier, and digitized at 10 kHz for exogenous glutamate responses and 20 kHz for mEPSCs. Signals were lowpass filtered at 5 kHz (1 kHz for mEPSCs) and acquired using Axograph X software (Axograph Scientific, Sydney, Australia). Recordings in which Rinput or Rseries varied by more than 10% were excluded from the analysis. For analysis of mEPSCs, Axograph X mini analysis software was used. This detected events based on closeness of fit of the mEPSC to a sliding template. Events smaller than − ? 4 pA were discarded. A separate template was created for each recording by averaging 30 of its most unambiguous mEPSCs as selected by eye.
Other studies have shown that LTD in Purkinje cells cultured from embryonic mouse cerebellum requires activation of mGluR1, and is expressed postsynaptically as a reduction in surface AMPA receptors (Chung et al., Science 300:1751-5, 2003; Leitges et al., Neuron 44:585-94, 2004; Linden, PNAS 98:14066-71, 2001; Matsuda et al., EMBO J. 19:2765-74, 2000; Steinberg et al., Neuron 49:845-60, 2006; Wang and Linden, Neuron 25:635-47, 2000). Here, LTD was examined using a purely postsynaptic model in which iontophoretic test pulses of glutamate are applied to voltage-clamped Purkinje cells in culture. Following a baseline recording period, LTD was induced by pairing six 3 sec long depolarizing steps to 0 mV with six glutamate test pulses. When test pulses were resumed after pairing, LTD of the glutamate-evoked inward current was evident (52±9.0% of baseline at t=40 min, n=7 cells, FIG. 6A). […]

CC(C)C[C@H](CC(=O)NO)C(=O)N[C@H](C(=O)N[C@@H](C)C(=O)NCCN)C(C)(C)C [TAPI-2]
glutamate-evoked inward current after LTD induction: 112±8.6 % of baseline
